The values that follow come from patent US10131663B2, “Chemical compounds” (AstraZeneca AB, priority 2016, dated 2018).

A short description of data set [1]: Thermodynamic solubility (shake-flask). The class given is physicochemical. Particulars: aqueous phosphate buffer pH 7.4, 24 hours. On the procedure:
The thermodynamic solubility of a research compound is measured under standard conditions. It is a shake-flask approach that uses 10 mM DMSO solutions which are supplied from the Compound Managements liquid store and is a high throughput method. The dried compounds are equilibrated in an aqueous phosphate buffer (pH 7.4) for 24 hours at 25° C., the portion with the dissolved compound is then separated from the remains. The solutions are analyzed and quantified using UPLC/MS/MS, QC-samples are incorporated in each assay-run to ensure the quality of the assay.

The nature of data set [2]: log D (shake flask, 1-octanol/aqueous buffer). In kind it is physicochemical. From the text: The lipophilicity of a drug is an important physical property which may influence many biological and metabolic properties of a compound, for example the absorption, distribution, metabolism, excretion and toxicity profiles of a compound. The distribution coefficient between 1-octanol and aqueous buffer, Log DO/W, at pH 7.4, is the most commonly used measurement of the lipophilicity of a compound. The current method for measurement of Log DO/W is based on the traditional shake flask technique, but with the modification of measuring compounds in mixtures of ten at a time using UPLC with quantitative mass spectrometry (MS) as a method to measure the relative octanol and aqueous concentrations. […] An additional QC sample Caffeine, with low Log D, are used and randomly placed in all runs. The method has been thoroughly validated against the previous shake flask methodologies.

Data set [3] can be described thus: Human plasma protein binding (equilibrium dialysis). In kind it is in vitro ADME. Particulars: dialysis 18 hours. Here is the method:
The automated equilibrium dialysis assay in human plasma uses the RED (Rapid Equilibrium Dialysis) Device and sample handling. The assay generally runs over two to three days including delivery of results. After dialysis for 18 hours, plasma and buffer samples are prepared for analysis by liquid chromatography and mass spectrometry. Samples are generally tested in singlicates and quantified by LC/MSMS by using a 7-point calibration curve in plasma. The compounds are pooled together in plasma pools up to 10 compounds. Three reference compounds are used in each run, Propranolol, Metoprolol and Warfarin. Warfarin is used as a control in each pool and Propranolol and Metoprolol are placed randomly in each run. An in-house Excel macro is used for preparation of files for the robot and the mass spectrometer and is also used for the calculations of fraction unbound (fu %) in plasma.
In general terms: In equilibrium dialysis only unbound substance equilibrates across the membrane.

Where [4] appears, read: aqueous phosphate buffer, 25 °C, pH 7.4, aqueous buffer, thermodynamic from solid.
Setting [5] is: 1-octanol/aqueous buffer, pH 7.4, pH 7.4, 1-octanol/aqueous buffer.
[6] abbreviates: pH 7.4, 1-octanol/aqueous buffer.

In general, solubility refers to the concentration that dissolves in the medium under given conditions. What is called logD is lipophilicity at a set pH, counting ionised and neutral species.

SMILES strings stand for the structures. Converted amounts (≈) assume the structure as drawn.

Regarding `COC[C@](C)(F)CN1[C@H](c2ccc(OC3CN(CCCF)C3)cc2OC)c2ccc3[nH]ncc3c2C[C@H]1C` (single isomer, unassigned) [Example 12], the solubility at 24 h in data set [1] (setting [4]) worked out at 77 µM (≈ 40.7 µg/mL). The compound also returned a logD in data set [2] (setting [5]) of 3.9. In data set [3], the “Human plasma protein binding (% free)” value was determined as 2.7 % free.

As to `COC[C@](C)(F)CN1[C@H](c2ccc(OC3CN(CCCF)C3)cc2OC)c2ccc3[nH]ncc3c2C[C@H]1C` (single isomer, unassigned) [Example 13], the solubility at 24 h in data set [1] (25° C.) turned out to be 78 µM (≈ 41.2 µg/mL). The “LogD pH 7.4” value in data set [2] (setting [6]) is reported as 4. Moreover, the “Human plasma protein binding (% free)” value in data set [3] is 6.4 % free.

Regarding `COC[C@](C)(F)CN1[C@H](c2ccc(NC3CN(CCCF)C3)cc2OC)c2ccc3[nH]ncc3c2C[C@H]1C` (single isomer, unassigned) [Example 14], in data set [1] (setting [4]), the solubility at 24 h was 897 µM (≈ 473 µg/mL). Also, in data set [2] (setting [5]), the logD stood at 2.6. Moreover, the “Human plasma protein binding (% free)” value in data set [3] was determined as 16 % free.

In turn, `COC[C@](C)(F)CN1[C@H](c2ccc(NC3CN(CCCF)C3)cc2OC)c2ccc3[nH]ncc3c2C[C@H]1C` (single isomer, unassigned) [Example 15] returned a solubility at 24 h in data set [1] (25° C.) of 821 µM (≈ 433 µg/mL). Also, in data set [2] (setting [6]), the “LogD pH 7.4” value stood at 2.5. In data set [3], the “Human plasma protein binding (% free)” value turned out to be 34 % free.

`CC(F)CN1[C@H](c2ccc(NC3CN(CCCF)C3)cn2)c2ccc3[nH]ncc3c2C[C@H]1C` (single isomer, unassigned) [Example 65]: the solubility at 24 h in data set [1] (setting [4]) came to 790 µM (≈ 359 µg/mL). The compound further came in with a pH-dependent lipophilicity (logD) in data set [2] (setting [5]) of 2.4.

In turn, `CC(F)CN1[C@H](c2ccc(NC3CN(CCCF)C3)cn2)c2ccc3[nH]ncc3c2C[C@H]1C` (single isomer, unassigned) [Example 66] showed a solubility at 24 h in data set [1] (25° C.) of 931 µM (≈ 423 µg/mL). Besides, the “LogD pH 7.4” value in data set [2] (setting [6]) was 2.3.

`COc1cc(NC2CN(CCCF)C2)ccc1[C@@H]1c2ccc3[nH]ncc3c2C[C@@H](C)N1CC(C)F` (single isomer, unassigned) [Example 67]: the solubility at 24 h in data set [1] (setting [4]) turned out to be 914 µM (≈ 442 µg/mL). The logD in data set [2] (setting [5]) was 2.7. Also, the “Human plasma protein binding (% free)” value in data set [3] is given as 19 % free.

For `COc1cc(NC2CN(CCCF)C2)ccc1[C@@H]1c2ccc3[nH]ncc3c2C[C@@H](C)N1CC(C)F` (single isomer, unassigned) [Example 68], the solubility at 24 h in data set [1] (25° C.) came to 561 µM (≈ 271 µg/mL). Besides, in data set [2] (setting [6]), the “LogD pH 7.4” value is 2.4. The “Human plasma protein binding (% free)” value in data set [3] came to 37 % free.

Consider `COCC(C)(F)CN1[C@H](c2ccc(NC3CN(CCCF)C3)cc2OC)c2ccc3[nH]ncc3c2C[C@H]1C` (stereo partly drawn) [Example 4, N-(4-((6S,8R)-7-(2-fluoro-3-methoxy-2-methylpropyl)-8-methyl-6,7,8,9-tetrahydro-3H-pyrazolo[4,3-f]isoquinolin-6-yl)-3-methoxyphenyl)-1-(3-fluoropropyl)azetidin-3-amine], for which, in data set [1] (setting [4]), the solubility at 24 h was determined as 991 µM (≈ 523 µg/mL). This compound also showed a logD in data set [2] (setting [5]) of 2.7. In addition, the “Human plasma protein binding (% free)” value in data set [3] worked out at 21 % free.

Take `COc1cc(NC2CN(CCCF)C2)cnc1[C@@H]1c2ccc3[nH]ncc3c2C[C@@H](C)N1CC(F)(F)F` [Example 37, N-(1-(3-fluoropropyl)azetidin-3-yl)-5-methoxy-6-((6S,8R)-8-methyl-7-(2,2,2-trifluoroethyl)-6,7,8,9-tetrahydro-3H-pyrazolo[4,3-f]isoquinolin-6-yl)pyridin-3-amine]: the solubility at 24 h in data set [1] (setting [4]) amounted to 961 µM (≈ 487 µg/mL). For the same compound, the logD in data set [2] (setting [5]) turned out to be 2.6. The “Human plasma protein binding (% free)” value in data set [3] was found to be 25 % free.

`FCCCN1CC(Nc2ccc([C@@H]3c4ccc5[nH]ncc5c4C[C@@H](C(F)F)N3CC(F)F)nc2)C1` [Example 51, 6-((6S,8S)-7-(2,2-difluoroethyl)-8-(difluoromethyl)-6,7,8,9-tetrahydro-3H-pyrazolo[4,3-f]isoquinolin-6-yl)-N-(1-(3-fluoropropyl)azetidin-3-yl)pyridin-3-amine] showed a solubility at 24 h in data set [1] (setting [4]) greater than 1000 µM. In data set [2] (setting [6]), this compound registered a logD of 2.7. Moreover, in data set [3], the “Human plasma protein binding (% free)” value turned out to be 28 % free.

Consider `C[C@@H]1Cc2c(ccc3[nH]ncc23)[C@@H](c2ccc(NC3CN(CCCF)C3)nc2)N1CC1(F)CC1` [Example 54, 5-((6S,8R)-7-((1-fluorocyclopropyl)methyl)-8-methyl-6,7,8,9-tetrahydro-3H-pyrazolo[4,3-f]isoquinolin-6-yl)-N-(1-(3-fluoropropyl)azetidin-3-yl)pyridin-2-amine], for which the solubility at 24 h in data set [1] (setting [4]) was greater than 1000 µM. The compound further returned a logD in data set [2] (setting [5]) of 1.4. Also, the “Human plasma protein binding (% free)” value in data set [3] is given as 57 % free.

`C[C@@H]1Cc2c(ccc3[nH]ncc23)[C@@H](c2ccc(NC3CN(CCCF)C3)cn2)N1CC(C)(C)F` [Example 63, 6-((6S,8R)-7-(2-fluoro-2-methylpropyl)-8-methyl-6,7,8,9-tetrahydro-3H-pyrazolo[4,3-f]isoquinolin-6-yl)-N-(1-(3-fluoropropyl)azetidin-3-yl)pyridin-3-amine] yielded a solubility at 24 h in data set [1] (setting [4]) of 870 µM (≈ 408 µg/mL). Also, the logD in data set [2] (setting [6]) was 3.2. In addition, the “Human plasma protein binding (% free)” value in data set [3] came to 10 % free.

With `C[C@@H]1Cc2c(ccc3[nH]ncc23)[C@@H](c2ccc(NC3CN(CCCF)C3)cn2)N1CC(C)(F)F` [Example 70, 6-((6S,8R)-7-(2,2-difluoropropyl)-8-methyl-6,7,8,9-tetrahydro-3H-pyrazolo[4,3-f]isoquinolin-6-yl)-N-(1-(3-fluoropropyl)azetidin-3-yl)pyridin-3-amine], in data set [1] (setting [4]), the solubility at 24 h is 857 µM (≈ 405 µg/mL). The compound also returned a logD in data set [2] (setting [6]) of 2.9. In addition, the “Human plasma protein binding (% free)” value in data set [3] is 24 % free.

The compound `C[C@@H]1Cc2c(ccc3[nH]ncc23)[C@@H](c2ncc(NC3CN(CCCF)C3)cc2F)N1CC(F)(F)CF` [Example 71, 5-fluoro-N-(1-(3-fluoropropyl)azetidin-3-yl)-6-((6S,8R)-8-methyl-7-(2,2,3-trifluoropropyl)-6,7,8,9-tetrahydro-3H-pyrazolo[4,3-f]isoquinolin-6-yl)pyridin-3-amine] came in with a solubility at 24 h in data set [1] (setting [4]) of 666 µM (≈ 339 µg/mL). The compound also had a logD in data set [2] (setting [6]) of 3.2.

As to `CC1(C)Cc2c(ccc3[nH]ncc23)[C@@H](c2ccc(NC3CN(CCCF)C3)cn2)N1CC(F)(F)F` [Example 72, (S)-6-(8,8-dimethyl-7-(2,2,2-trifluoroethyl)-6,7,8,9-tetrahydro-3H-pyrazolo[4,3-f]isoquinolin-6-yl)-N-(1-(3-fluoropropyl)azetidin-3-yl)pyridin-3-amine], the solubility at 24 h in data set [1] (setting [4]) came out at 738 µM (≈ 362 µg/mL). The logD in data set [2] (setting [6]) amounted to 3.3. In addition, the “Human plasma protein binding (% free)” value in data set [3] came out at 14 % free.
